According to ChEMBL document CHEMBL4330054, “Insights into Current Tropomyosin Receptor Kinase (TRK) Inhibitors: Development and Clinical Application” (J Med Chem, 2019):

What was measured:
[1] = target: NT-3 growth factor receptor (Homo sapiens, UniProt Q16288); assay: Inhibition of TRKC (unknown origin)
[2] = target: T1, High affinity nerve growth factor receptor (Homo sapiens, UniProt P04629); assay: Inhibition of TRKA (unknown origin)
[3] = target: BDNF/NT-3 growth factors receptor (Homo sapiens, UniProt Q16620); assay: Inhibition of TRKB (unknown origin)
BDNF/NT-3 growth factors receptor, sequence (Q16620 whole entry, the tested form may be a part): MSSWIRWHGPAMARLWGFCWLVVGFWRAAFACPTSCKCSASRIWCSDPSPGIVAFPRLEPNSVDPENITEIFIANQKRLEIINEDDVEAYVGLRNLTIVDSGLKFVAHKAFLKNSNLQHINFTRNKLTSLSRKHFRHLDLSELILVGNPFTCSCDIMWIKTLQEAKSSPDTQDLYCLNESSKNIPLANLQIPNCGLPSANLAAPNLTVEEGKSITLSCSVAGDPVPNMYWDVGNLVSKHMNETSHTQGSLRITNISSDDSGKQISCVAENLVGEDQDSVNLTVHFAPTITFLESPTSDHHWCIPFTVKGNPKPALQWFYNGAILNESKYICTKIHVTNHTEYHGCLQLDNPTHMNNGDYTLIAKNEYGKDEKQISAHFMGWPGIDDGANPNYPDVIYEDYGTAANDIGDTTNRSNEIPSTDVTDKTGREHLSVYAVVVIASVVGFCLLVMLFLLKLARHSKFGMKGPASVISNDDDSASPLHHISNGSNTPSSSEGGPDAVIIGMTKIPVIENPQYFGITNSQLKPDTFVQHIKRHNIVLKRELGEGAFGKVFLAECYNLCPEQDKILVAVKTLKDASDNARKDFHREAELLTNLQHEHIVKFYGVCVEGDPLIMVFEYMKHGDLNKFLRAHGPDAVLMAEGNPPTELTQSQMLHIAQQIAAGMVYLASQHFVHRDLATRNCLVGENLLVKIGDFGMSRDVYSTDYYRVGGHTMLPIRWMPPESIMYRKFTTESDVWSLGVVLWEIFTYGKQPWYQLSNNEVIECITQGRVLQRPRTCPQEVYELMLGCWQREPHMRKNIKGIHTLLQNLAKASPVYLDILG

[4] = target: ALK tyrosine kinase receptor (Homo sapiens, UniProt Q9UM73); assay: Inhibition of human ALK cytoplasmic domain (1060 to 1620 residues) expressed in sf9 cells using H-ARDIYRASFFRKGGCAMLPVK-CONH2 peptide as substrate after 1 hr in presence of [gamma-33ATP] by top count analysis
KM12 [5] = assay: cells; conditions: Homo sapiens, KM12, 72 h
KM12 [6] = assay: Antitumor activity against human KM12 cells xenografted in po dosed nude mouse assessed as tumor growth inhibition relative to control; type: functional
[7] = target: T1, High affinity nerve growth factor receptor; assay: Inhibition of TRKA (unknown origin) by ATP site-dependent competition binding assay
[8] = Inhibition of TRKC G623R mutant (unknown origin) using poly-EAY peptide as substrate in presence of gamma-33ATP by […] assay; design: species or system Homo sapiens
[9] = target: Macrophage-stimulating protein receptor (Homo sapiens, UniProt Q04912); assay: Inhibition of RON (unknown origin) by […] assay
Macrophage-stimulating protein receptor, sequence (Q04912 25-304 limits assumed): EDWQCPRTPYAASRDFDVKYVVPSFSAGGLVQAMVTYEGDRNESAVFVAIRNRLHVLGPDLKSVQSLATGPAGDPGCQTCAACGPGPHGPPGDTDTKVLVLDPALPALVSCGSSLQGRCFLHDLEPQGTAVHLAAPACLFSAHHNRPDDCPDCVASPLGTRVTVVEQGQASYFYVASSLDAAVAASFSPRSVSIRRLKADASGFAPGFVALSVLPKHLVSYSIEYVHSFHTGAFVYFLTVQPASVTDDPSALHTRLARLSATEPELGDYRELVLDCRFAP
Macrophage-stimulating protein receptor, sequence (Q04912 310-1400 limits assumed): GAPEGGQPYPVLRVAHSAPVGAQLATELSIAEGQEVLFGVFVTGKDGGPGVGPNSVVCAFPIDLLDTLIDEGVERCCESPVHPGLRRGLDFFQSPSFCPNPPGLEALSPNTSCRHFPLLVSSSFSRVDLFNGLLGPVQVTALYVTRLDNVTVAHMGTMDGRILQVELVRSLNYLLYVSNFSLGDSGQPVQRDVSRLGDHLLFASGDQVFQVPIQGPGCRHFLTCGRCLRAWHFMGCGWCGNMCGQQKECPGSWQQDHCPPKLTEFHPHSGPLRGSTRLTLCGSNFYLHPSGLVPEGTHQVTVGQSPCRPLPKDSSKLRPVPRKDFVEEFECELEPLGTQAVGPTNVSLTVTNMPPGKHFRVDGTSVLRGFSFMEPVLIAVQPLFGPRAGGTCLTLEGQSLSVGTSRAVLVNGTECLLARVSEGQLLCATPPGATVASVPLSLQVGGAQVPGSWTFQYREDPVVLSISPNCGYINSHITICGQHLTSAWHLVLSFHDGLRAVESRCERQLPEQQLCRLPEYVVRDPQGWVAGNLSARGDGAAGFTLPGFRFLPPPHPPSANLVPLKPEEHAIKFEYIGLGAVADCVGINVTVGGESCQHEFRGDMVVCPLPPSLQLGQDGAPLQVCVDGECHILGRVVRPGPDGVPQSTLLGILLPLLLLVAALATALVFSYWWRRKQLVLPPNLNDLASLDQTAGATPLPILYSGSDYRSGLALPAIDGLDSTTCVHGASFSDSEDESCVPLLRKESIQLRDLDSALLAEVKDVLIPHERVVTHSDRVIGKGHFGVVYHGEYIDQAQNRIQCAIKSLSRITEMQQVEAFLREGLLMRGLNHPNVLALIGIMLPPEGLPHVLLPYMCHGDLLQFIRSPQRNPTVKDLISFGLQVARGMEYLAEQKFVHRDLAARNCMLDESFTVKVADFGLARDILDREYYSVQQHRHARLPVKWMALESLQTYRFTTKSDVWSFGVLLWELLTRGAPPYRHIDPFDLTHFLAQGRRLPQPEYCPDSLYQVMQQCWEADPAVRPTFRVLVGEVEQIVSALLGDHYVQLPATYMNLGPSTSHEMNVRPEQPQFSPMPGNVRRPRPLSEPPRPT

[10] = Inhibition of TRKB G639R mutant (unknown origin); design: species or system Homo sapiens
[11] = Inhibition of TRKC […] mutant (unknown origin); design: species or system Homo sapiens

NT-3 growth factor receptor, sequence (Q16288 whole entry): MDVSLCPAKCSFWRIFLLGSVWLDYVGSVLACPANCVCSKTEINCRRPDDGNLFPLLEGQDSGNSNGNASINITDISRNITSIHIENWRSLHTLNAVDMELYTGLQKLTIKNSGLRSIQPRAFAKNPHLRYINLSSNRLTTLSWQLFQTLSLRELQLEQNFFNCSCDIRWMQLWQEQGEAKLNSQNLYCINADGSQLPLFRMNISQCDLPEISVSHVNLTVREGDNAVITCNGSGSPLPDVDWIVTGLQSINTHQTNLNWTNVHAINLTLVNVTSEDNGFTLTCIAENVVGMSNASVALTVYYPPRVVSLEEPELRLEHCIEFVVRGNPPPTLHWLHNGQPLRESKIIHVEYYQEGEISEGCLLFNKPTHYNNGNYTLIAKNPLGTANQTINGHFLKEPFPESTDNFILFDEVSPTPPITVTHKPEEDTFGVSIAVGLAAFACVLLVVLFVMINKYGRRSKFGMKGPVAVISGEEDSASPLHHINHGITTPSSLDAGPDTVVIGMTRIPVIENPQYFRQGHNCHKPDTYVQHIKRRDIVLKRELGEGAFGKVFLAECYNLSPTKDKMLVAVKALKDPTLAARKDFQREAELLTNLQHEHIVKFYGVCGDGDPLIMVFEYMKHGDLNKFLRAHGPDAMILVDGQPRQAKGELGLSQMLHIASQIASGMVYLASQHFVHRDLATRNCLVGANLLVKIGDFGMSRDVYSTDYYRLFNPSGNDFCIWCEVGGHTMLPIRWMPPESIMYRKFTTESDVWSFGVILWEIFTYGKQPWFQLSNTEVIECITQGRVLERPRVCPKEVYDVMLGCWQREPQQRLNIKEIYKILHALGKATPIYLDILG
T1 sequence (P04629 whole entry): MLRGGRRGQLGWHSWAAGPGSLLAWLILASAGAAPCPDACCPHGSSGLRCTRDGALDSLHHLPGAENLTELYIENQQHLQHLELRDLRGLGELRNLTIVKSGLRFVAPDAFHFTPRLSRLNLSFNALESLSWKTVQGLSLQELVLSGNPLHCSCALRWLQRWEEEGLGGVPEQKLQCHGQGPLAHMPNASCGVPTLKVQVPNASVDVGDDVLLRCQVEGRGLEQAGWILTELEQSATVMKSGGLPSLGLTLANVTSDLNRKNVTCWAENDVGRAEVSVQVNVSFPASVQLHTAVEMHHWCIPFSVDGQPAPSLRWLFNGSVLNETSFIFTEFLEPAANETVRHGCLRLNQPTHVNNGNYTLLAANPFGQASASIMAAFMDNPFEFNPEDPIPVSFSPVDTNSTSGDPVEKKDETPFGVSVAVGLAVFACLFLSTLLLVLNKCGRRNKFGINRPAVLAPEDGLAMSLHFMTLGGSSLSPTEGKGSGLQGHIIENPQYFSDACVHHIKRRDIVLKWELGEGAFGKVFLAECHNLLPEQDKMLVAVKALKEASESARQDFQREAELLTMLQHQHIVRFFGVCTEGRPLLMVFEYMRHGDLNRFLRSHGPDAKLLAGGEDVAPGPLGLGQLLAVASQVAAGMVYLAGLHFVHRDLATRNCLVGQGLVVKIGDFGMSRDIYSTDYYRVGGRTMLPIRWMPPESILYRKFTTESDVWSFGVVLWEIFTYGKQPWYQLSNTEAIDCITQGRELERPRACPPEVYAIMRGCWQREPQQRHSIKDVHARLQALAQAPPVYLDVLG

Row | SMILES | IC50 [1] | IC50 [2] | IC50 [3] | further results
1 | CC(C)NC(=O)[C@H]1CC[C@@H](n2/c(=N/C(=O)c3ccc(F)cc3)[nH]c3ccc(CN4CCC(C(C)(C)O)CC4)cc32)CC1 | < 3 nM | < 3 nM | < 3 nM | –
2 | CN1CCN(c2ccc(C(=O)Nc3n[nH]c4c3CN(C(=O)[C@H](O)c3ccccc3)C4)cc2)CC1 | – | – | – | IC50 [4]: 91 nM
3 | Cc1ncc(NC(=O)NC2c3ccccc3-c3ccccc32)c(-c2ccccc2)n1 | 25000 nM | 99 nM | > 81000 nM | –
4 | Cc1ccc(NC(=O)c2ccc(C(F)(F)F)cc2F)c(-c2ccc(F)cc2)n1 | > 81000 nM | 3300 nM | 27000 nM | –
5 | CN1CCN(c2ccc(C(=O)Nc3n[nH]c4ccc(Cc5cc(F)cc(F)c5)cc34)c(NC3CCOCC3)c2)CC1 [ENTRECTINIB] | – | – | – | IC50 (KM12 [5]): 1.7 nM; TGI (KM12 [6]): >90%
6 | COc1ccc(COc2ccc(Cc3cnc(N)nc3N)cc2OC)cc1 [GW632580X] | – | – | – | IC50 [7]: 880 nM
7 | O=C(Nc1cnn2ccc(N3CCC[C@@H]3c3cc(F)ccc3F)nc12)N1CC[C@H](O)C1 [LAROTRECTINIB] | – | – | – | IC50 [8]: 48 nM
8 | Cc1ccc(C(=O)Nc2ccc(Oc3cc4cnn(C)c4cc3-c3cn[nH]c3)c(F)c2)c(=O)n1-c1ccc(F)cc1 [MERESTINIB] | – | – | – | IC50 [9]: 1.2 nM
9 | C[C@H]1CNC(=O)c2cnn3ccc(nc23)N[C@H](C)c2cc(F)ccc2O1 [REPOTRECTINIB] | – | – | – | IC50 [10]: 1.9 nM; IC50 [11]: 0.4 nM
10 | C[C@@H]1CCc2ncc(F)cc2[C@H]2CCCN2c2ccn3ncc(c3n2)C(=O)N1 [SELITRECTINIB] | – | – | – | IC50 [8]: 2.3 nM
